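Test compounds were applied to cells in 96-well plates for 48 hours at 5 doses. Abbreviation: GI50, concentration required for 50% inhibition of growth.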 Activity calls are given as the source filed them. Rule as the data show it: active = GI50 up to about 1.1 µM and inactive = higher.
Columns and labels:
Assay in all cases: growth of human tumour cells (NCI), 48 h
[1] = test system: OVCAR-5
[2] = test system: K562
[3] = test system: DMS-114
[4] = test system: Malme-3M
[5] = test system: HOP-92
[6] = test system: HOP-62
[7] = test system: CCRF-CEM
[8] = test system: OVCAR-4
[9] = test system: UACC-257
[10] = test system: DLD-1
[11] = test system: SNB-78
[12] = test system: KM-20L2
[13] = test system: OVCAR-3

Structure (SMILES)	GI50 [1]	GI50 [2]	GI50 [3]	GI50 [4]	GI50 [5]	GI50 [6]	GI50 [7]	GI50 [8]	GI50 [9]	GI50 [10]	GI50 [11]	GI50 [12]	GI50 [13]
O=C(Nc1ccc(C(F)(F)F)cc1[N+](=O)[O-])C(=O)Nn1c(S)nc2ccccc2c1=O	> 100 µM (inactive)	> 100 µM (inactive)	> 100 µM (inactive)	> 100 µM (inactive)	> 100 µM (inactive)	> 100 µM (inactive)	> 100 µM (inactive)	> 100 µM (inactive)	> 100 µM (inactive)	> 100 µM (inactive)	> 100 µM (inactive)	> 100 µM (inactive)	–
CCC/C(=N\NC(=O)c1cc2ccccc2cc1O)C(CC)C(=O)CCC(=O)N(Cc1ccccc1)Cc1ccccc1 (stereo not drawn)	36.2 µM (inactive)	26.2 µM (inactive)	26.3 µM (inactive)	50.1 µM (inactive)	33.3 µM (inactive)	81.1 µM (inactive)	7.62 µM (inactive)	59 µM (inactive)	36.1 µM (inactive)	58.1 µM (inactive)	> 100 µM (inactive)	43 µM (inactive)	20.5 µM (inactive)
O=C(CC(=O)c1ccc([N+](=O)[O-])cc1)C(=O)Nc1nccs1	> 100 µM (inactive)	> 100 µM (inactive)	> 40.5 µM (inactive)	> 100 µM (inactive)	> 100 µM (inactive)	> 100 µM (inactive)	> 100 µM (inactive)	> 100 µM (inactive)	–	> 100 µM (inactive)	> 100 µM (inactive)	> 100 µM (inactive)	> 100 µM (inactive)
CC(=O)NC1=C(NC(C)(C)C)C(=O)c2ccccc2C1=O	48.1 µM (inactive)	7.19 µM (inactive)	20.6 µM (inactive)	19.5 µM (inactive)	19.1 µM (inactive)	49.4 µM (inactive)	2.35 µM (inactive)	20.1 µM (inactive)	15.9 µM (inactive)	15.9 µM (inactive)	31 µM (inactive)	18.7 µM (inactive)	15.6 µM (inactive)
Cc1cccc(-n2c(=S)[nH]c3c(sc(=O)n3-c3ccccc3C)c2=O)c1	> 100 µM (inactive)	> 100 µM (inactive)	> 100 µM (inactive)	> 100 µM (inactive)	> 100 µM (inactive)	> 100 µM (inactive)	> 100 µM (inactive)	> 100 µM (inactive)	> 100 µM (inactive)	> 100 µM (inactive)	> 100 µM (inactive)	> 100 µM (inactive)	> 100 µM (inactive)
COC(=O)/C(=N/NC(C)(C)C)C(C(=O)OC)C(=O)C(=O)Nc1nc2ccc([N+](=O)[O-])cc2s1 (stereo not drawn)	> 100 µM (inactive)	> 100 µM (inactive)	> 100 µM (inactive)	> 100 µM (inactive)	–	> 100 µM (inactive)	> 100 µM (inactive)	> 100 µM (inactive)	> 100 µM (inactive)	–	> 100 µM (inactive)	> 100 µM (inactive)	> 100 µM (inactive)
O=C(Nc1ccc(Cl)cc1Cl)c1c/c(=N\O)c2ccc(O)cc2o1	> 100 µM (inactive)	> 100 µM (inactive)	> 100 µM (inactive)	> 100 µM (inactive)	> 100 µM (inactive)	> 100 µM (inactive)	> 100 µM (inactive)	> 100 µM (inactive)	> 100 µM (inactive)	> 100 µM (inactive)	> 100 µM (inactive)	> 100 µM (inactive)	> 100 µM (inactive)
COc1ccc(/C(Cl)=C(\C=O)c2ccc(Cl)cc2)cc1OC	85.1 µM (inactive)	3.69 µM (inactive)	4.47 µM (inactive)	34.9 µM (inactive)	–	15.9 µM (inactive)	2.98 µM (inactive)	5.12 µM (inactive)	6.55 µM (inactive)	5.12 µM (inactive)	5.82 µM (inactive)	7.62 µM (inactive)	5.74 µM (inactive)
Nc1nc(SCCC/C=C/B(O)O)nc2c1ncn2C1OC(CO)C(O)C1O (stereo not drawn)	> 243 µM (inactive)	> 243 µM (inactive)	–	> 243 µM (inactive)	> 243 µM (inactive)	> 243 µM (inactive)	> 243 µM (inactive)	> 243 µM (inactive)	> 243 µM (inactive)	> 243 µM (inactive)	> 243 µM (inactive)	> 243 µM (inactive)	> 243 µM (inactive)
COc1cc2ccc1-c1cc(ccc1O)CC1c3cc4c(cc3CCN1C)Oc1c(OC)cc3c(c1O4)C(C2)N(C)CC3 (stereo not drawn)	3.4 µM (inactive)	1.44 µM (inactive)	2 µM (inactive)	1.89 µM (inactive)	13.4 µM (inactive)	1.93 µM (inactive)	2.19 µM (inactive)	1.96 µM (inactive)	1.72 µM (inactive)	2.28 µM (inactive)	2.1 µM (inactive)	1.46 µM (inactive)	1.95 µM (inactive)
CN(C)CC1(C)CC/C(=C\c2ccc(Cl)cc2)C1=O (stereo not drawn)	> 100 µM (inactive)	40.6 µM (inactive)	22.6 µM (inactive)	> 100 µM (inactive)	59 µM (inactive)	> 100 µM (inactive)	25.8 µM (inactive)	35.2 µM (inactive)	44.7 µM (inactive)	29.2 µM (inactive)	40.8 µM (inactive)	21.3 µM (inactive)	34.7 µM (inactive)
CCCN(CCCCC(NC(C)=O)C(=O)NCc1ccccc1)C(=O)NC (stereo not drawn)	> 100 µM (inactive)	> 100 µM (inactive)	> 100 µM (inactive)	> 100 µM (inactive)	> 100 µM (inactive)	> 100 µM (inactive)	> 100 µM (inactive)	> 100 µM (inactive)	> 100 µM (inactive)	> 100 µM (inactive)	> 100 µM (inactive)	> 100 µM (inactive)	> 100 µM (inactive)
Cc1c(N)nc(C(CC(N)=O)NCC(N)C(N)=O)nc1C(=O)NC(C(=O)NC(C)C(O)C(C)C(=O)NC(C(=O)NCCc1nc(-c2nc(C(=O)NCCCNCCCCN)cs2)cs1)C(C)O)C(OC1OC(CO)C(O)C(O)C1OC1OC(CO)C(O)C(OC(N)=O)C1O)c1c[nH]cn1 (stereo not drawn)	> 10 µM (inactive)	> 10 µM (inactive)	1.85 µM (inactive)	2.07 µM (inactive)	0.0724 µM (active)	0.321 µM (active)	> 10 µM (inactive)	> 6.46 µM (inactive)	> 10 µM (inactive)	> 10 µM (inactive)	> 10 µM (inactive)	> 10 µM (inactive)	> 6.28 µM (inactive)
CCCC/C(C)=N/NC(N)=S	> 100 µM (inactive)	> 100 µM (inactive)	> 100 µM (inactive)	> 100 µM (inactive)	> 100 µM (inactive)	> 100 µM (inactive)	> 100 µM (inactive)	–	> 100 µM (inactive)	> 100 µM (inactive)	> 100 µM (inactive)	> 100 µM (inactive)	> 100 µM (inactive)
Nc1n[n+](-c2ccccc2)no1	40.7 µM (inactive)	4.85 µM (inactive)	18.3 µM (inactive)	34.7 µM (inactive)	25.4 µM (inactive)	31.6 µM (inactive)	31.8 µM (inactive)	> 100 µM (inactive)	25.9 µM (inactive)	5.7 µM (inactive)	> 100 µM (inactive)	10.8 µM (inactive)	47.4 µM (inactive)
CC1(C)OC(=O)C(c2ccsc2)C(=O)O1	> 100 µM (inactive)	> 100 µM (inactive)	> 100 µM (inactive)	> 100 µM (inactive)	> 100 µM (inactive)	> 100 µM (inactive)	> 100 µM (inactive)	> 100 µM (inactive)	> 100 µM (inactive)	> 100 µM (inactive)	> 100 µM (inactive)	> 100 µM (inactive)	> 100 µM (inactive)
C1=CC=C2NCCSCC/N=C3/C=CC=CC=C3NCCSCC/N=C\2C=C1	> 100 µM (inactive)	> 100 µM (inactive)	> 100 µM (inactive)	> 100 µM (inactive)	–	> 100 µM (inactive)	> 100 µM (inactive)	> 100 µM (inactive)	> 100 µM (inactive)	> 100 µM (inactive)	> 100 µM (inactive)	> 100 µM (inactive)	> 100 µM (inactive)
O=c1cc(-c2ccccc2)oc2cc(OCCCOc3ccc4c(=O)cc(-c5ccccc5)oc4c3)ccc12	> 100 µM (inactive)	> 100 µM (inactive)	> 100 µM (inactive)	> 100 µM (inactive)	> 100 µM (inactive)	> 100 µM (inactive)	> 100 µM (inactive)	> 100 µM (inactive)	> 100 µM (inactive)	> 100 µM (inactive)	> 100 µM (inactive)	> 100 µM (inactive)	> 100 µM (inactive)
O=c1[nH]cnc2[nH]nnc12	29.8 µM (inactive)	0.593 µM (active)	8.02 µM (inactive)	1.41 µM (inactive)	2.19 µM (inactive)	1.99 µM (inactive)	0.4 µM (active)	4.93 µM (inactive)	4.39 µM (inactive)	–	6.3 µM (inactive)	3.87 µM (inactive)	14 µM (inactive)
C=C1C(OC(C)=O)CC(OC(C)=O)C2(C)C(OC(C)=O)C(OC(C)=O)C3=C(C)C(OC(=O)/C=C/c4ccccc4)CC(C(OC(C)=O)C12)C3(C)C (stereo not drawn)	> 100 µM (inactive)	> 100 µM (inactive)	> 100 µM (inactive)	59.3 µM (inactive)	21.8 µM (inactive)	31 µM (inactive)	> 100 µM (inactive)	16.7 µM (inactive)	> 100 µM (inactive)	> 100 µM (inactive)	38.8 µM (inactive)	> 100 µM (inactive)	–
CN(C)Cc1cc(/C(=C(\C#N)c2ccccc2)c2ccc(O)cc2)ccc1O	26.2 µM (inactive)	20 µM (inactive)	15.1 µM (inactive)	16.1 µM (inactive)	14.4 µM (inactive)	14.4 µM (inactive)	18.4 µM (inactive)	21.5 µM (inactive)	15.6 µM (inactive)	20.8 µM (inactive)	32.1 µM (inactive)	20.4 µM (inactive)	18.7 µM (inactive)

Source: ChEMBL document CHEMBL1201862, “PubChem BioAssay data set” (2004)
